Assay results taken from ChEMBL document CHEMBL4219073, “Development of selective inhibitors for the treatment of rheumatoid arthritis: (R)-3-(3-(Methyl(7H-pyrrolo[2,3-d]pyrimidin-4-yl)amino)pyrrolidin-1-yl)-3-oxopropanenitrile as a JAK1-selective inhibitor” (Bioorg Med Chem, 2018).

Tests used:
[1] = target: Tyrosine-protein kinase JAK2 (Homo sapiens, UniProt O60674); format: ADME
Description: Inhibition of recombinant human JAK2 (808-end residues) in presence of ATP

[2] = target: Tyrosine-protein kinase JAK1 (Homo sapiens, UniProt P23458)
Description: Inhibition of recombinant human JAK1 (866-end residues) in presence of ATP

in vitro [3] = settings: mouse, microsomes
Description: Metabolic stability in mouse liver microsomes assessed as parent compound remaining after 30 mins

in vitro [4] = settings: human, microsomes
Description: Metabolic stability in human liver microsomes assessed as parent compound remaining after 30 mins

in vitro [5] = settings: dog, microsomes
Description: Metabolic stability in dog liver microsomes assessed as parent compound remaining after 30 mins

in vitro [6] = settings: rat, microsomes
Description: Metabolic stability in rat liver microsomes assessed as parent compound remaining after 30 mins

Tyrosine-protein kinase JAK1, sequence (P23458 whole entry): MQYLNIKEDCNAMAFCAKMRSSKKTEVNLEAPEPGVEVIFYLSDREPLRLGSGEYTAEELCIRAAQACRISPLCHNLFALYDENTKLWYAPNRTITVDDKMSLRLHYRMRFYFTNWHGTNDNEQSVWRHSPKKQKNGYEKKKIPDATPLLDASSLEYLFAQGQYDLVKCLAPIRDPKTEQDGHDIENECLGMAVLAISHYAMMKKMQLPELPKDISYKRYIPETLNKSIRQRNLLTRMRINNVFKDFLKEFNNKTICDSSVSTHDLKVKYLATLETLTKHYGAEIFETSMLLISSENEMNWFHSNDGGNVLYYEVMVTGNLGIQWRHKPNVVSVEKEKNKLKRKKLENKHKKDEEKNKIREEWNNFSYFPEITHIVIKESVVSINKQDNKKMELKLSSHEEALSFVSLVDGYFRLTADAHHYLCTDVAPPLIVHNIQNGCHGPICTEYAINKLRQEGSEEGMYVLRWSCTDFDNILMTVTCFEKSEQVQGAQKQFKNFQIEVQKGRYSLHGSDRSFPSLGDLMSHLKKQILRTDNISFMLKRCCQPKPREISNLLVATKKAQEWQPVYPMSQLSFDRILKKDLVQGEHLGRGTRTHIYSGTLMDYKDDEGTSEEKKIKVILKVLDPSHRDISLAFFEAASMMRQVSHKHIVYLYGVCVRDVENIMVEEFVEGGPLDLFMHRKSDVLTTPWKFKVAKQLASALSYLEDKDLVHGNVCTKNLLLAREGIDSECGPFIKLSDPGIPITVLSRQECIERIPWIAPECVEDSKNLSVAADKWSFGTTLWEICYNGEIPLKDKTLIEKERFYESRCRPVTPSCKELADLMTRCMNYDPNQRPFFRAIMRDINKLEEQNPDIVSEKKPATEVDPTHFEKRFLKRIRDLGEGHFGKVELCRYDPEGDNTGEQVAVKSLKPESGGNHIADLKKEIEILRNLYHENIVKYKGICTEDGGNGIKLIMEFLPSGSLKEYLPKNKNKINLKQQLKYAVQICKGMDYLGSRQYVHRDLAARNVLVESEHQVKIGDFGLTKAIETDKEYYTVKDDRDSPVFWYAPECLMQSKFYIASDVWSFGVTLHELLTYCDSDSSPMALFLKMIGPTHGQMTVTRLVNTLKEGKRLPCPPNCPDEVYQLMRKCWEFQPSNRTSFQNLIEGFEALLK
Tyrosine-protein kinase JAK2, sequence (O60674 whole entry): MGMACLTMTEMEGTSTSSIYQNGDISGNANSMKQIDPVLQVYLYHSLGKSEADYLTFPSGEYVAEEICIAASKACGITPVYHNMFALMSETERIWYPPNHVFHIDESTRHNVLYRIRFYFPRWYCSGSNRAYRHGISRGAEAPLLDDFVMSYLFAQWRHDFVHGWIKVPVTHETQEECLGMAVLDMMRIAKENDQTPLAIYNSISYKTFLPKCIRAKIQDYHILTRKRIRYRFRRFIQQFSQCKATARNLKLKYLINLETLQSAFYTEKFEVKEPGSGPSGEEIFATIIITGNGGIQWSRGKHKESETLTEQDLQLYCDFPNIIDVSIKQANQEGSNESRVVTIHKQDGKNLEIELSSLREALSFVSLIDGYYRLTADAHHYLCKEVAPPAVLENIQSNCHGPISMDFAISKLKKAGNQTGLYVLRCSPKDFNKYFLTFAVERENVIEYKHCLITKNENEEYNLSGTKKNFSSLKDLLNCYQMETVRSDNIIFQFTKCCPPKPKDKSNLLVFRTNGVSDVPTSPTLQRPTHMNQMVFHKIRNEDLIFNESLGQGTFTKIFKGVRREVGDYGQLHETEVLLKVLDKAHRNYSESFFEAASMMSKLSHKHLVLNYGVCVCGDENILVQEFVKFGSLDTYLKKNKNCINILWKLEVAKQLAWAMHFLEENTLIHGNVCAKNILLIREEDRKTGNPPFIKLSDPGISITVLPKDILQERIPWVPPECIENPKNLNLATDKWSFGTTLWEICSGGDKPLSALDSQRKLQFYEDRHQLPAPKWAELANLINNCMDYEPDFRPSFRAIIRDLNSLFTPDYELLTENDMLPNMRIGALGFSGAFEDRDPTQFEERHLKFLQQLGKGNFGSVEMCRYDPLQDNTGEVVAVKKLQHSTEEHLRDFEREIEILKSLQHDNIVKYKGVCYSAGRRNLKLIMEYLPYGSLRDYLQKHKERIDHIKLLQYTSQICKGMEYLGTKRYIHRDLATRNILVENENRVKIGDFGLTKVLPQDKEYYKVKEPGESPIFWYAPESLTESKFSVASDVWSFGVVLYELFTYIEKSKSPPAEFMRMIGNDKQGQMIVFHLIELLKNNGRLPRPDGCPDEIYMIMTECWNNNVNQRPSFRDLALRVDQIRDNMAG

SMILES	IC50 [1] [nM]	IC50 [2] [nM]	remaining at 0.5 h (in vitro [3]) [%]	remaining at 0.5 h (in vitro [4]) [%]	remaining at 0.5 h (in vitro [5]) [%]	remaining at 0.5 h (in vitro [6]) [%]
CN(c1ncnc2[nH]ccc12)[C@@H]1CCN(C(=O)CN=[N+]=[N-])C1	170	10	–	–	–	–
CN(c1ncnc2[nH]ccc12)[C@@H]1CCN(C(=O)Nc2ccccc2)C1	550	22	–	–	–	–
CN(c1ncnc2[nH]ccc12)[C@@H]1CCN(S(=O)(=O)c2ccc([N+](=O)[O-])cc2)C1	89	3.6	–	–	–	–
CCN(c1ncnc2[nH]ccc12)[C@@H]1CCN(C(=O)CC#N)C1	1300	62	–	–	–	–
CN(c1ncnc2[nH]ccc12)[C@@H]1CCN(S(=O)(=O)c2ccc(C(F)(F)F)cc2)C1	3400	9.5	8.4	21	14.2	11.4
CN(c1ncnc2[nH]ccc12)[C@@H]1CCN(S(=O)(=O)c2cccc([N+](=O)[O-])c2)C1	18	1.9	3.1	13.4	10.4	2.5
CN(c1ncnc2[nH]ccc12)[C@@H]1CCN(S(=O)(=O)c2ccccc2C#N)C1	370	52	–	–	–	–
CC(C)CC(=O)N1CC[C@@H](N(C)c2ncnc3[nH]ccc23)C1	3900	70	–	–	–	–
CN(c1ncnc2[nH]ccc12)[C@@H]1CCN(S(=O)(=O)c2ccc(C#N)cc2)C1	1200	11	–	–	–	–
CN(c1ncnc2[nH]ccc12)[C@@H]1CCN(S(=O)(=O)c2ccccc2[N+](=O)[O-])C1	1100	110	–	–	–	–
CC(C)COC(=O)N1CC[C@@H](N(C)c2ncnc3[nH]ccc23)C1	4300	110	–	–	–	–

Further lines, results first:

IC50 [1] [nM]	IC50 [2] [nM]	remaining at 0.5 h (in vitro [3]) [%]	remaining at 0.5 h (in vitro [4]) [%]	remaining at 0.5 h (in vitro [5]) [%]	remaining at 0.5 h (in vitro [6]) [%]	SMILES
730	29	–	–	–	–	Cc1cccc(S(=O)(=O)N2CC[C@@H](N(C)c3ncnc4[nH]ccc34)C2)c1
4800	170	–	–	–	–	CC(C)S(=O)(=O)N1CC[C@@H](N(C)c2ncnc3[nH]ccc23)C1
430	28	–	–	–	–	CN(c1ncnc2[nH]ccc12)[C@@H]1CCN(S(=O)(=O)c2ccccc2)C1
460	34	–	–	–	–	CCCS(=O)(=O)N1CC[C@@H](N(C)c2ncnc3[nH]ccc23)C1
4500	140	–	–	–	–	CN(c1ncnc2[nH]ccc12)[C@@H]1CCN(S(=O)(=O)C(F)(F)F)C1
4700	70	–	–	–	–	CN(c1ncnc2[nH]ccc12)[C@@H]1CCN(S(C)(=O)=O)C1
27000	740	–	–	–	–	CCCCN1CC[C@@H](N(C)c2ncnc3[nH]ccc23)C1
3900	66	–	–	–	–	CN(c1ncnc2[nH]ccc12)[C@@H]1CCN(S(=O)(=O)N2CCCCC2)C1
